Assay results from ChEMBL document CHEMBL1201862, “PubChem BioAssay data set” (2004).
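Each compound was tested at five concentrations against cells in 96-well plates for 48 hours. GI50: concentration for 50% inhibition of growth.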 Calls of active or inactive are those of the source. Rule as the data show it: active = GI50 up to about 1.1 µM and inactive = higher.

How the values were obtained:
Assay in all cases: NCI anticancer screen, dose series, 48 h
HOP-62 = test system: HOP-62
SF-539 = test system: SF-539
HCT-116 = test system: HCT-116
T47D = test system: T47D
MOLT-4 = test system: MOLT-4
SF-295 = test system: SF-295
MDA-MB-231 = test system: MDA-MB-231
COLO 205 = test system: COLO 205
IGROV-1 = test system: IGROV-1
NCI-H23 = test system: NCI-H23
U-251 = test system: U-251
NCI-H226 = test system: NCI-H226
TK-10 = test system: TK-10
ACHN = test system: ACHN
OVCAR-4 = test system: OVCAR-4
UACC-62 = test system: UACC-62
NCI-H522 = test system: NCI-H522
OVCAR-3 = test system: OVCAR-3
CCRF-CEM = test system: CCRF-CEM
SK-MEL-28 = test system: SK-MEL-28
SNB-19 = test system: SNB-19
SK-MEL-5 = test system: SK-MEL-5
SK-MEL-2 = test system: SK-MEL-2
SNB-75 = test system: SNB-75
HL-60 = test system: HL-60
Hs-578T = test system: Hs-578T
HT-29 = test system: HT-29
OVCAR-8 = test system: OVCAR-8
RPMI-8226 = test system: RPMI-8226
CAKI-1 = test system: CAKI-1
PC-3 = test system: PC-3
MDA-MB-435 = test system: MDA-MB-435
Malme-3M = test system: Malme-3M
HOP-92 = test system: HOP-92
UACC-257 = test system: UACC-257
HCT-15 = test system: HCT-15
M14 = test system: M14
MCF7 = test system: MCF7
MDA-N = test system: MDA-N
EKVX = test system: EKVX
A549 = test system: A549
KM12 = test system: KM12
BT-549 = test system: BT-549
SW-620 = test system: SW-620
K562 = test system: K562
RXF 393 = test system: RXF 393
NCI-H460 = test system: NCI-H460
HCC 2998 = test system: HCC 2998
SK-OV-3 = test system: SK-OV-3
UO-31 = test system: UO-31
LOX IMVI = test system: LOX IMVI
SR = test system: SR
786-0 = test system: 786-0
OVCAR-5 = test system: OVCAR-5
A498 = test system: A498
SF-268 = test system: SF-268
SN12C = test system: SN12C
NCI/ADR-RES = test system: NCI/ADR-RES
DU-145 = test system: DU-145

Question: How did the GI50 (HOP-62) turn out when `NC(C(=O)O)c1cc(O)no1` (stereo not drawn) was run?
Answer: > 100 µM (inactive)

Question: What about the GI50 (SF-539) of the same compound?
Answer: > 100 µM (inactive)

Question: What about the GI50 (HCT-116) of the same compound?
Answer: > 100 µM (inactive)

Question: And the GI50 (T47D)?
Answer: > 100 µM (inactive)

Question: And the GI50 (MOLT-4)?
Answer: > 100 µM (inactive)

Question: And the GI50 (SF-295)?
Answer: > 100 µM (inactive)

Question: And the GI50 (MDA-MB-231)?
Answer: > 100 µM (inactive)

Question: What about the GI50 (COLO 205) of the same compound?
Answer: > 100 µM (inactive)

Question: And the GI50 (IGROV-1)?
Answer: > 100 µM (inactive)

Question: And the GI50 (NCI-H23)?
Answer: > 100 µM (inactive)

Question: And the GI50 (U-251)?
Answer: > 100 µM (inactive)

Question: What about the GI50 (NCI-H226) of the same compound?
Answer: > 100 µM (inactive)

Question: And the GI50 (TK-10)?
Answer: > 100 µM (inactive)

Question: And the GI50 (ACHN)?
Answer: > 100 µM (inactive)

Question: And the GI50 (OVCAR-4)?
Answer: > 100 µM (inactive)

Question: And the GI50 (UACC-62)?
Answer: > 100 µM (inactive)

Question: What about the GI50 (NCI-H522) of the same compound?
Answer: > 100 µM (inactive)

Question: And the GI50 (OVCAR-3)?
Answer: > 100 µM (inactive)

Question: And the GI50 (CCRF-CEM)?
Answer: > 100 µM (inactive)

Question: What about the GI50 (SK-MEL-28) of the same compound?
Answer: > 100 µM (inactive)

Question: What about the GI50 (SNB-19) of the same compound?
Answer: > 100 µM (inactive)

Question: What about the GI50 (SK-MEL-5) of the same compound?
Answer: > 100 µM (inactive)

Question: And the GI50 (SK-MEL-2)?
Answer: > 100 µM (inactive)

Question: What about the GI50 (SNB-75) of the same compound?
Answer: > 100 µM (inactive)

Question: And the GI50 (HL-60)?
Answer: > 60 µM (inactive)

Question: And the GI50 (Hs-578T)?
Answer: > 100 µM (inactive)

Question: What about the GI50 (HT-29) of the same compound?
Answer: > 100 µM (inactive)

Question: What about the GI50 (OVCAR-8) of the same compound?
Answer: > 100 µM (inactive)

Question: And the GI50 (RPMI-8226)?
Answer: > 100 µM (inactive)

Question: And the GI50 (CAKI-1)?
Answer: > 100 µM (inactive)

Question: What about the GI50 (PC-3) of the same compound?
Answer: > 100 µM (inactive)

Question: What about the GI50 (MDA-MB-435) of the same compound?
Answer: > 100 µM (inactive)

Question: What about the GI50 (Malme-3M) of the same compound?
Answer: > 100 µM (inactive)

Question: And the GI50 (HOP-92)?
Answer: > 100 µM (inactive)

Question: And the GI50 (UACC-257)?
Answer: > 100 µM (inactive)

Question: What about the GI50 (HCT-15) of the same compound?
Answer: > 100 µM

Question: What about the GI50 (M14) of the same compound?
Answer: > 100 µM (inactive)

Question: And the GI50 (MCF7)?
Answer: > 100 µM (inactive)

Question: What about the GI50 (MDA-N) of the same compound?
Answer: > 100 µM (inactive)

Question: What about the GI50 (EKVX) of the same compound?
Answer: > 100 µM (inactive)

Question: What about the GI50 (A549) of the same compound?
Answer: > 100 µM (inactive)

Question: And the GI50 (KM12)?
Answer: > 100 µM (inactive)

Question: What about the GI50 (BT-549) of the same compound?
Answer: > 42.5 µM (inactive)

Question: And the GI50 (SW-620)?
Answer: > 100 µM (inactive)

Question: What about the GI50 (K562) of the same compound?
Answer: > 100 µM (inactive)

Question: What about the GI50 (RXF 393) of the same compound?
Answer: > 100 µM (inactive)

Question: What about the GI50 (NCI-H460) of the same compound?
Answer: > 100 µM (inactive)

Question: What about the GI50 (HCC 2998) of the same compound?
Answer: > 100 µM (inactive)

Question: What about the GI50 (SK-OV-3) of the same compound?
Answer: > 100 µM (inactive)

Question: What about the GI50 (UO-31) of the same compound?
Answer: > 100 µM (inactive)

Question: And the GI50 (LOX IMVI)?
Answer: > 100 µM (inactive)

Question: What about the GI50 (SR) of the same compound?
Answer: > 100 µM (inactive)

Question: And the GI50 (786-0)?
Answer: > 100 µM (inactive)

Question: What about the GI50 (OVCAR-5) of the same compound?
Answer: > 100 µM (inactive)

Question: What about the GI50 (A498) of the same compound?
Answer: > 100 µM (inactive)

Question: And the GI50 (SF-268)?
Answer: > 100 µM (inactive)

Question: And the GI50 (SN12C)?
Answer: > 100 µM (inactive)

Question: And the GI50 (NCI/ADR-RES)?
Answer: > 100 µM (inactive)

Question: What about the GI50 (DU-145) of the same compound?
Answer: > 100 µM (inactive)

Question: Which results are given for `CC(C)NC(=O)CN1CCN(C2=CC(=O)c3c(O)ccc(O)c3C2=O)CC1`?
Answer: GI50 (HOP-62): 18.2 µM (inactive); GI50 (SF-539): 16.7 µM (inactive); GI50 (HCT-116): 2.96 µM (inactive); GI50 (T47D): 8.69 µM (inactive); GI50 (MOLT-4): 17 µM (inactive); GI50 (SF-295): 15.6 µM (inactive); GI50 (MDA-MB-231): 26.3 µM (inactive); GI50 (COLO 205): 3 µM (inactive); GI50 (IGROV-1): 14.8 µM (inactive); GI50 (NCI-H23): 9.4 µM (inactive); GI50 (U-251): 19.9 µM (inactive); GI50 (NCI-H226): 31.4 µM (inactive); GI50 (TK-10): 17.1 µM (inactive); GI50 (ACHN): 21.2 µM (inactive); GI50 (OVCAR-4): 7.45 µM (inactive); GI50 (UACC-62): 5.18 µM (inactive); GI50 (NCI-H522): 18.2 µM (inactive); GI50 (OVCAR-3): 2.58 µM (inactive); GI50 (CCRF-CEM): 8.65 µM (inactive); GI50 (SK-MEL-28): 17.1 µM (inactive); GI50 (SNB-19): 18.7 µM (inactive); GI50 (SK-MEL-5): 2.58 µM (inactive); GI50 (SK-MEL-2): 16.6 µM (inactive); GI50 (SNB-75): 18.2 µM (inactive); GI50 (HL-60): 2.59 µM (inactive); GI50 (Hs-578T): 25.9 µM (inactive); GI50 (HT-29): 3.62 µM (inactive); GI50 (OVCAR-8): 9.04 µM (inactive); GI50 (RPMI-8226): 24.9 µM (inactive); GI50 (CAKI-1): 26.2 µM (inactive); GI50 (PC-3): 17.5 µM (inactive); GI50 (MDA-MB-435): 1.93 µM (inactive); GI50 (Malme-3M): 2.22 µM (inactive); GI50 (HOP-92): 21.9 µM (inactive); GI50 (UACC-257): 7.18 µM (inactive); GI50 (HCT-15): 8.75 µM; GI50 (M14): 9.33 µM (inactive); GI50 (MCF7): 2.71 µM (inactive); GI50 (MDA-N): 2.79 µM (inactive); GI50 (EKVX): 19.3 µM (inactive); GI50 (A549): 16.4 µM (inactive); GI50 (KM12): 16.6 µM (inactive); GI50 (BT-549): 17.7 µM (inactive); GI50 (SW-620): 4.25 µM (inactive); GI50 (K562): 20.6 µM (inactive); GI50 (RXF 393): 17.2 µM (inactive); GI50 (NCI-H460): 13 µM (inactive); GI50 (HCC 2998): 16.7 µM (inactive); GI50 (SK-OV-3): 26.1 µM (inactive); GI50 (UO-31): 18.3 µM (inactive); GI50 (LOX IMVI): 6.1 µM (inactive); GI50 (SR): 1.57 µM (inactive); GI50 (786-0): 16.4 µM (inactive); GI50 (OVCAR-5): 18.7 µM (inactive); GI50 (A498): 24.2 µM (inactive); GI50 (SF-268): 24.3 µM (inactive); GI50 (SN12C): 14.5 µM (inactive); GI50 (NCI/ADR-RES): 3.9 µM (inactive); GI50 (DU-145): 16.1 µM (inactive)
